# Measured values published in paper PMC6316600, “Analgesic Activity of Acid-Sensing Ion Channel 3 (ASIС3) Inhibitors: Sea Anemones Peptides Ugr9-1 and APETx2 versus Low Molecular Weight Compounds” (Marine Drugs, 2018).
# “Also recorded” adds a separate entry of the source. Bridge positions count the residues as written; N and C are the ends. Peptide text beside a SMILES is read from it.
# Assays:
# [1] = system: ASIC3; conditions: cited from earlier work
# Source text: An inhibition of ASIC3 was reported to be an attractive approach to producing analgesia. […] Other nonspecific substances can also influence ASIC3 activity.
# [2] = target: T1, human ASIC3 (Homo sapiens, UniProt Q9UHC3); assay: Inhibition of transient hASIC3 current, two-electrode voltage clamp, Xenopus laevis oocytes; assay type: cell-based
# T1 construct: host or cells: Xenopus laevis oocytes (cRNA injection)
# T1 sequence (Q9UHC3 1-531): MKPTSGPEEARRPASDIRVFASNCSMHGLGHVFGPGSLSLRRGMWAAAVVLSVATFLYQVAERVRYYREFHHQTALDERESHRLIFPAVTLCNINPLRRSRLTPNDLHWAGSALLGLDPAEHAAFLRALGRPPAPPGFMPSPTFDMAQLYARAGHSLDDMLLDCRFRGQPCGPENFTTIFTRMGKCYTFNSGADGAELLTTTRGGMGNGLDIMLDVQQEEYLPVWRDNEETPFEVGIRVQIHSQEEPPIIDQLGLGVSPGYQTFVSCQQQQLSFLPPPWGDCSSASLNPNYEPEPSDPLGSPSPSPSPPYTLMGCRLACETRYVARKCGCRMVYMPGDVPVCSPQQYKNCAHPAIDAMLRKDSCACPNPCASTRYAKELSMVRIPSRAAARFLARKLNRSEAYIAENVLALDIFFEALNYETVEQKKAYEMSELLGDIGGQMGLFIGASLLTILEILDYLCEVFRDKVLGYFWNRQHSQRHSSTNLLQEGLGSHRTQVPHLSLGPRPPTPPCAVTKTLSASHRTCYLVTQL
# Protocol: The activity of ligands was checked on human ASIC3 (hASIC3) channels expressed in Xenopus laevis oocytes. […] Two different protocols were used to reveal the effects of ligands on sustained and transient components of acid-induced hASIC3 currents. The influence of the compounds on the transient current amplitude was estimated after preincubation for 15 s before the activation in a low alkali bath solution (pH 7.8), which ensured an absence of steady-state desensitization for the transient current (Figure 1A). The compounds’ inhibition effectiveness was calculated using the value of maximal amplitudes. […] The inhibitory effect was concentration-dependent and fit well using a logistic equation.
# Figure 1 Comparison of ligands’ antagonistic effects on hASIC3 channels. Whole-cell currents were induced by pH drops and recorded at the holding potential −50 mV. (A) Effect of ligands on the transient component of current at conditioning pH 7.8. The control trace is shown first; (B) Effect of ligands on the sustained component at conditioning pH 7.3. The black line is the control trace, and the red line is the trace of activation in the presence of a ligand. Dose-response curves for transient (C) and sustained (D) currents’ inhibitions are shown. Data are shown as mean ± SEM (n = 4–6) and fitted with the logistic equation (solid lines).
# X. laevis oocytes were removed surgically and defolliculated by collagenase (Sigma-Aldrich, Moscow, Russia). Oocytes were injected with 2.5 to 10 ng of human ASIC3 cRNA (AF057711.1). The cRNA transcripts were synthesised from a NaeI-linearized ASIC3 cDNA template (pcDNA3.1+humanASIC3 subcloned from clone EX-Q0260- B02 (GeneCopoeia, Inc., Rockville, MD USA) using a HiScribe T7 High Yield RNA Synthesis Kit (New England Biolabs, Ipswich, MA, USA) according to the manufacturer’s protocol for capped transcripts. After the injection, oocytes were kept for 3 to 6 days at 19° in a ND-96 medium containing (in mM) 96 NaCl, 2 KCl, 1.8 CaCl2, 1 MgCl2, and 5 HEPES titrated to pH 7.4 with NaOH supplemented with gentamycin (50 µg/mL). Two-electrode voltage clamp recordings were performed using a GeneClamp 500 amplifier (Axon Instruments, Union City, CA, USA), and the data were filtered at 20 Hz and digitized at 100 Hz by an AD converter L780 (LCard, Moscow, Russia) using in-house software. To induce transient and/or sustained currents, two different protocols with different conditioning pH were used. Microelectrodes were filled with a 3 M KCl solution. The working buffer solution was ND-96 titrated by NaOH to pH 7.8 or 7.3. The solution for the pH shift was constructed based on the ND-96 solution, in which 5 mM HEPES was replaced with 10 mM acetic acid (pH 4.0) or 10 mM MES (pH 5.5) in a supplementary 0.1% BSA solution. The duration of the activation pulses was 3.5 s.
# The analysis of the electrophysiological data was performed using the OriginPro 8.6 programme.
# [3] = system: mice; assay: Acetic acid-induced writhing; assay type: in vivo, CD-1 mice
# Protocol: Acetic acid-induced writhing is based on irritation of tissues and organs of the abdomen by low pH and could be considered the most appropriate test for influence on acid-induced pain. […] It is interesting that the effects of sevanol and Ugr9-1 plateaued at a wide range of doses (0.01–1mg/kg for sevanol and 0.02–1 mg/kg Ugr9-1) (Figure 3C,D).
# Figure 3 Effects of ligands in an acetic acid-induced writhing test. […] (A) Efficacy of ASIC3 antagonists at a dose of 1 mg/kg. (B–D) Dose-dependent chart of ligands’ effects: APETx2 (B), sevanol (C), and Ugr9-1 (D). Results are presented as mean ± SEM (n = 8). ** p < 0.01, *** p < 0.001 versus saline group (ANOVA followed by a Tukey’s test).
# Adult male CD-1 mice (Animal Breeding Facility Branch of Shemyakin-Ovchinnikov Institute of Bioorganic Chemistry, Russian Academy of Sciences, Pushchino, Russia) weighing 20–25 g were used. Animals that originally passed clinical examination that confirmed no deviations in health were divided into groups (at least eight male mice per group) using the principle of randomization. The average body weight of animals in each group was not statistically different between groups. Animals were housed at room temperature (23 ± 2 °C) and subjected to a 12-h light-dark cycle with food and water available ad libitum. All experiments were performed after receiving approval from the Animal Care and Use Committee of the Branch of the Institute of Bioorganic Chemistry, Russian Academy of Sciences (IBCh RAS) (Pushchino, Russia Federation). The samples were administered intramuscularly 2 h before testing (4 h in the open field test). […]
# Separate groups of mice were used. Writhes were caused 2 h after the intramuscular injection of the samples (saline for control mice) with the injection of 0.6% acetic acid in saline (10 mL/kg intraperitoneally). Mice were immediately placed inside transparent glass cylinders, and the latency of a first writhe and the number of writhes were recorded for 15 min.
# The data significance in animal tests was determined by an analysis of variance followed by a Tukey’s test. Data are presented as the mean ± SEM.
# [4] = hASIC3 in X. laevis oocytes, conditioning pH 7.8, mean ± SEM (n = 4–6)
# [5] = intramuscular, 2 h before, n = 8
smiles,measurement,setting,value
"CC[C@H](C)[C@H](N)C(=O)N[C@@H](CO)C(=O)N[C@H](C(=O)N[C@@H](CC(=O)O)C(=O)N1CCC[C@H]1C(=O)N1CCC[C@H]1C(=O)N[C@H]1CSSC[C@@H](C(=O)NCC(=O)N[C@@H](C)C(=O)N[C@H](C(=O)O)C(C)C)NC(=O)CNC(=O)[C@H](Cc2ccc(O)cc2)NC(=O)[C@H](C)NC(=O)[C@H](CC(=O)O)NC(=O)[C@H](Cc2ccc(O)cc2)NC(=O)[C@H](C(C)C)NC(=O)[C@@H]2CSSC[C@H](NC(=O)[C@H](Cc3ccccc3)NC(=O)[C@H](CCCNC(=N)N)NC1=O)C(=O)N[C@@H](Cc1ccc(O)cc1)C(=O)N[C@@H](Cc1c[nH]cn1)C(=O)N[C@@H](CCCNC(=N)N)C(=O)N[C@@H](CC(=O)O)C(=O)NCC(=O)N[C@@H](CO)C(=O)NCC(=O)N[C@@H](CC(N)=O)C(=O)N2)[C@@H](C)CC [Ugr9-1] (H-ISIDPPCRFCYHRDGSGNCVYDAYGCGAV-OH; disulfide 7-26, 10-19; N-terminus and C-terminus assumed)",Inhibition of ASIC3 current components,[1],inhibit both components of the ASIC3 current
same,"Rank of in vitro potency, transient component of hASIC3 current",[2],APETx2 > Ugr9-1 > sevanol
same,Concentration needed to block transient current relative to APETx2,[2]; Ugr9-1 versus APETx2,30 times
same,Lower efficacy in inhibition of the transient component relative to APETx2,[2]; Ugr9-1 versus APETx2,30 times
same,Inhibition of transient current (in words),[2]; conditioning pH 7.8,completely blocked the transient current of ASIC3; also recorded: decreased transient and sustained components of the current
same,"Hill coefficient, transient currents",[2]; [4],1.86 ± 0.16
same,"Effective dose, lower than that of APETx2, writhing test",[3]; Ugr9-1 versus APETx2,10 times
same,Writhing test result (in words),"[3]; intramuscular, 2 h before","attenuated the response to the intraperitoneal administration of acetic acid; also recorded: The most stable effect was produced by Ugr9-1, and it was slightly more significant in lower doses (0.002 mg/kg)"
same,"Dose of maximal effect, writhing test",[3]; [5],0.02 mg/kg
"O=C(O)Cc1ccccc1Nc1c(Cl)cccc1Cl [diclofenac, reference compound]",Inhibition of ASIC3 / ASICs currents,[1]; sensory neurons and heterologous-expressed ASIC3,inhibit ASICs currents directly on sensory neurons and heterologous-expressed ASIC3 channels
same,Inhibition of transient current (in words),[2]; conditioning pH 7.8,not detected
same,"Maximal effect of reducing pain, writhing test","[3]; intramuscular, 2 h before, all doses",~ 75%
O=C(O)C[C@H](C(=O)O)[C@@H](OC(=O)C1=Cc2cc(O)c(O)cc2[C@@H](c2ccc(O)c(O)c2)[C@@H]1C(=O)O[C@@H](C(=O)O)[C@H](CC(=O)O)C(=O)O)C(=O)O [sevanol],Inhibition of transient and sustained ASIC3 currents,[1],inhibited the amplitude of transient and sustained ASIC3 currents
same,"Rank of in vitro potency, transient component of hASIC3 current",[2],APETx2 > Ugr9-1 > sevanol
same,Inhibition of transient current (in words),[2]; conditioning pH 7.8,had much less potency and inhibited transient currents in submillimolar concentrations; also recorded: complete inhibition was observed; also recorded: decreased transient and sustained components of the current
same,IC50,"[2]; hASIC3 in X. laevis oocytes, conditioning pH 7.8, 15 s preincubation, holding -50 mV, logistic fit, mean ± SEM (n = 4–6), read-out: IC50, transient currents",331 ± 21 µM
same,"Hill coefficient, transient currents",[2]; [4],1.98 ± 0.24
same,Lower efficacy in vitro relative to APETx2,[2]; sevanol versus APETx2,1000 fold
same,Lower efficacy in vitro relative to Ugr9-1,[2]; sevanol versus Ugr9-1,35 fold
same,Inhibition of writhing,"[3]; 10 mg/kg intramuscular, 2 h before, n = 8",76%
same,Writhing test result (in words),"[3]; intramuscular, 2 h before",attenuated the response to the intraperitoneal administration of acetic acid; also recorded: The efficacy of sevanol was also high
same,"Dose of maximal effect, writhing test",[3]; [5],10 mg/kg
same,"In vivo effect, compared with peptides",[3]; sevanol versus APETx2 and Ugr9-1,almost equipotent effect in vivo
